Measured values taken from PubChem BioAssay (NCI).
Where “and” joins values, the source holds several entries; their conditions need not be identical. Equal values may be shown once.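 Results reflect a 48-hour exposure of cells in 96-well plates to compound at five concentrations. GI50 is the concentration that inhibits growth by half. TGI marks complete inhibition of growth.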

What was measured:
Assay in all cases: growth of human tumour cells (NCI), 48 h
[1] = tested on: UACC-62 melanoma
[2] = tested on: SNB-19 CNS
[3] = tested on: 786-0 renal
[4] = tested on: SF-295 CNS
[5] = tested on: SK-MEL-2 melanoma
[6] = tested on: SF-268 CNS
[7] = tested on: OVCAR-4 ovarian
[8] = tested on: UO-31 renal
[9] = tested on: HCT-116 colon
[10] = tested on: RXF 393 renal

## CC(=O)Oc1ccccc1C(=O)Nc1ncc([N+](=O)[O-])s1
[1]
  GI50: 1.23 µM
  TGI: 6.71 µM and > 47.3 µM
[2]
  GI50: 2.05 µM
  TGI: 45.7 µM and > 100 µM
[3]
  GI50: 2.35 µM
[4]
  GI50: 1.91 µM
[5]
  GI50: 2.05 µM
[6]
  GI50: 3.35 µM
  TGI: > 79.7 µM
[7]
  GI50: 2.05 µM
  TGI: 13.8 µM and > 100 µM
[8]
  GI50: 2.16 µM
[9]
  GI50: 2.26 µM
  TGI: 9.55 µM and > 61.2 µM
[10]
  GI50: 2.06 µM
  TGI: 13.1 µM and 29.7 µM

## COC(=O)/C=C/c1c(CC=C(C)C)ncn1C
[1]
  TGI: > 100 µM
[2]
  TGI: > 100 µM
[3]
  TGI: > 100 µM
[4]
  TGI: > 100 µM
[5]
  TGI: > 100 µM
[6]
  TGI: > 100 µM
[7]
  TGI: > 100 µM
[8]
  TGI: > 92.7 µM
[9]
  TGI: > 100 µM
[10]
  TGI: > 87 µM

## Cc1c(/C=N/NC(=O)c2ccc(Cl)cc2)c(=O)n(-c2ccccc2)n1C
[1]
  TGI: > 100 µM
[2]
  TGI: > 100 µM
[3]
  TGI: > 100 µM
[4]
  TGI: > 100 µM
[5]
  TGI: > 100 µM
[6]
  TGI: > 100 µM
[7]
  TGI: > 100 µM
[8]
  TGI: > 100 µM
[9]
  TGI: > 100 µM
[10]
  TGI: > 100 µM

## O=C(/C=C/c1ccccc1Cl)NC1C=Nc2ccc([N+](=O)[O-])cc2NC1 (stereo unspecified)
[1]
  TGI: > 100 µM
[2]
  TGI: > 100 µM
[3]
  TGI: > 100 µM
[4]
  TGI: > 100 µM
[5]
  TGI: > 100 µM
[6]
  TGI: > 100 µM
[7]
  TGI: > 100 µM
[8]
  TGI: > 100 µM
[9]
  TGI: > 100 µM
[10]
  TGI: > 100 µM

## O=C1NC(=O)/C(=C\c2ccccc2)C2=C1CCCC2
[1]
  GI50: 3.13 µM
  TGI: 9.13 µM
[2]
  GI50: 10.3 µM
  TGI: 22.1 µM
[3]
  GI50: 7.6 µM
  TGI: 20.2 µM
[4]
  GI50: 3.98 µM
  TGI: 17.6 µM
[5]
  GI50: 7.72 µM
  TGI: 22.9 µM
[6]
  GI50: 4.06 µM
  TGI: 14.8 µM
[7]
  GI50: 14.8 µM
  TGI: 29.2 µM
[8]
  GI50: 7.43 µM
  TGI: 21.8 µM
[9]
  GI50: 3.38 µM
  TGI: 11.1 µM
[10]
  GI50: 6.52 µM
  TGI: 59.8 µM

## COCC1(CO)C(=O)C2CCN1CC2 (stereo unspecified)
[1]
  GI50: 23 µM
  TGI: > 56.1 µM
[2]
  GI50: > 69 µM
  TGI: > 100 µM
[3]
  GI50: 17.4 µM
  TGI: 35.5 µM
[4]
  GI50: > 100 µM
  TGI: > 100 µM
[5]
  GI50: 20.6 µM
  TGI: 46.5 µM
[6]
  GI50: > 90.1 µM
  TGI: > 100 µM
[7]
  GI50: 16.9 µM
  TGI: 40.4 µM
[8]
  GI50: 15.1 µM
  TGI: 30 µM
[9]
  GI50: 14.3 µM
  TGI: 27.9 µM
[10]
  GI50: 15.7 µM
  TGI: 30.2 µM
